Experimental data: the NIST ThermoML archive (doi:10.1016/j.fluid.2007.08.010)
Numbers after ± are expanded uncertainties.

Conditions: Liquid, Falling or rolling sphere viscometry

Row | SMILES | viscosity (313.2 K, 690 kPa) [mPa·s] | viscosity (313.2 K, 5000 kPa) [mPa·s] | viscosity (313.2 K, 10000 kPa) [mPa·s] | viscosity (313.2 K, 20000 kPa) [mPa·s] | viscosity (313.2 K, 30000 kPa) [mPa·s] | viscosity (313.2 K, 40000 kPa) [mPa·s] | viscosity (313.2 K, 50000 kPa) [mPa·s] | viscosity (313.2 K, 60000 kPa) [mPa·s] | viscosity (333.2 K, 690 kPa) [mPa·s] | viscosity (333.2 K, 5000 kPa) [mPa·s] | viscosity (333.2 K, 10000 kPa) [mPa·s] | viscosity (333.2 K, 20000 kPa) [mPa·s] | viscosity (333.2 K, 30000 kPa) [mPa·s] | viscosity (333.2 K, 40000 kPa) [mPa·s] | viscosity (333.2 K, 50000 kPa) [mPa·s] | viscosity (333.2 K, 60000 kPa) [mPa·s] | viscosity (353.2 K, 690 kPa) [mPa·s] | viscosity (353.2 K, 5000 kPa) [mPa·s] | viscosity (353.2 K, 10000 kPa) [mPa·s] | viscosity (353.2 K, 20000 kPa) [mPa·s] | further results
1 | c1ccccc1 [benzene] | 0.479 ± 0.02 | 0.5 ± 0.02 | 0.524 ± 0.021 | 0.574 ± 0.023 | 0.625 ± 0.025 | 0.675 ± 0.027 | 0.725 ± 0.029 | 0.774 ± 0.031 | 0.387 ± 0.016 | 0.404 ± 0.016 | 0.424 ± 0.017 | 0.466 ± 0.019 | 0.509 ± 0.021 | 0.553 ± 0.023 | 0.597 ± 0.024 | 0.641 ± 0.026 | 0.317 ± 0.013 | 0.331 ± 0.013 | 0.347 ± 0.014 | 0.38 ± 0.015 | viscosity (353.2 K, 30000 kPa): 0.415 ± 0.017 mPa·s; viscosity (353.2 K, 40000 kPa): 0.451 ± 0.018 mPa·s; viscosity (353.2 K, 50000 kPa): 0.489 ± 0.02 mPa·s; viscosity (353.2 K, 60000 kPa): 0.526 ± 0.021 mPa·s; viscosity (373.2 K, 690 kPa): 0.269 ± 0.011 mPa·s; viscosity (373.2 K, 5000 kPa): 0.279 ± 0.011 mPa·s; viscosity (373.2 K, 10000 kPa): 0.291 ± 0.012 mPa·s; viscosity (373.2 K, 20000 kPa): 0.316 ± 0.013 mPa·s; viscosity (373.2 K, 30000 kPa): 0.344 ± 0.014 mPa·s; viscosity (373.2 K, 40000 kPa): 0.372 ± 0.015 mPa·s; viscosity (373.2 K, 50000 kPa): 0.402 ± 0.016 mPa·s; viscosity (373.2 K, 60000 kPa): 0.434 ± 0.018 mPa·s; viscosity (393.2 K, 690 kPa): 0.239 ± 0.01 mPa·s; viscosity (393.2 K, 5000 kPa): 0.246 ± 0.01 mPa·s; viscosity (393.2 K, 10000 kPa): 0.255 ± 0.01 mPa·s; viscosity (393.2 K, 20000 kPa): 0.273 ± 0.011 mPa·s; viscosity (393.2 K, 30000 kPa): 0.294 ± 0.012 mPa·s; viscosity (393.2 K, 40000 kPa): 0.315 ± 0.013 mPa·s; viscosity (393.2 K, 50000 kPa): 0.339 ± 0.014 mPa·s; viscosity (393.2 K, 60000 kPa): 0.364 ± 0.015 mPa·s
2 | CCCCCCCCCCCCCC [tetradecane] | 1.653 ± 0.068 | 1.738 ± 0.071 | 1.831 ± 0.075 | 2.025 ± 0.083 | 2.241 ± 0.092 | 2.483 ± 0.1 | 2.767 ± 0.11 | 3.093 ± 0.13 | 1.218 ± 0.05 | 1.283 ± 0.053 | 1.345 ± 0.055 | 1.473 ± 0.06 | 1.607 ± 0.066 | 1.74 ± 0.071 | 1.886 ± 0.077 | 2.043 ± 0.084 | 0.896 ± 0.037 | 0.957 ± 0.039 | 1.017 ± 0.042 | 1.128 ± 0.046 | viscosity (353.2 K, 30000 kPa): 1.229 ± 0.05 mPa·s; viscosity (353.2 K, 40000 kPa): 1.325 ± 0.054 mPa·s; viscosity (353.2 K, 50000 kPa): 1.423 ± 0.058 mPa·s; viscosity (353.2 K, 60000 kPa): 1.518 ± 0.062 mPa·s; viscosity (373.2 K, 690 kPa): 0.66 ± 0.027 mPa·s; viscosity (373.2 K, 5000 kPa): 0.708 ± 0.029 mPa·s; viscosity (373.2 K, 10000 kPa): 0.757 ± 0.031 mPa·s; viscosity (373.2 K, 20000 kPa): 0.852 ± 0.035 mPa·s; viscosity (373.2 K, 30000 kPa): 0.943 ± 0.039 mPa·s; viscosity (373.2 K, 40000 kPa): 1.031 ± 0.042 mPa·s; viscosity (373.2 K, 50000 kPa): 1.117 ± 0.046 mPa·s; viscosity (373.2 K, 60000 kPa): 1.202 ± 0.049 mPa·s; viscosity (393.2 K, 690 kPa): 0.527 ± 0.022 mPa·s; viscosity (393.2 K, 5000 kPa): 0.568 ± 0.023 mPa·s; viscosity (393.2 K, 10000 kPa): 0.609 ± 0.025 mPa·s; viscosity (393.2 K, 20000 kPa): 0.687 ± 0.028 mPa·s; viscosity (393.2 K, 30000 kPa): 0.767 ± 0.031 mPa·s; viscosity (393.2 K, 40000 kPa): 0.839 ± 0.034 mPa·s; viscosity (393.2 K, 50000 kPa): 0.908 ± 0.037 mPa·s; viscosity (393.2 K, 60000 kPa): 0.976 ± 0.04 mPa·s
